Patent US20230016424A1, “HYBRID AMIDE DERIVATIVES OF AMPHOTERICIN B” (The Board of Trustees of the University of Illinois, priority 2019, published 2023)
Converted amounts (≈) assume the structure as drawn. “And” between values parts separate entries of the source, which are not always exact repeats. Identical values can stand only once.

What was measured:
[1] = system: C. albicans SN250, C. albicans, C. krusei, C. glabrata, C. tropicalis, A. fumigatus 91, 1163, 1100; assay: Average MIC over the tested strains; type: cell-based; set-up: Avg. MIC of AmB amide: unit not given here; conditions: for MIC: average over the 8 listed strains; for Avg. MIC of AmB amide: value of the corresponding C16 amide of AmB
A. calldoustus = assay: MIC against moulds; type: cell-based; conditions: 6 isolates
A. thermomutatus = assay: MIC against moulds; type: cell-based; conditions: for MIC A. thermomutatus: 6 isolates
Mucor circinelloides = assay: MIC against moulds; type: cell-based; conditions: 6 isolates
Mucor janssenii = assay: MIC against moulds; type: cell-based; conditions: 6 isolates
Mucor velutinosus = assay: MIC against moulds; type: cell-based; conditions: 6 isolates
Coccidioides immitis = assay: microbe, parasite or virus in culture; type: cell-based
Licht. Corymbifera = assay: MIC against moulds; type: cell-based; conditions: 6 isolates
Syncephalastrum sp. = assay: MIC against moulds; type: cell-based; conditions: 6 isolates
Claophialophora bantiana = assay: MIC against moulds; type: cell-based; conditions: 6 isolates
Fonsecaea sp. = assay: MIC against moulds; type: cell-based; conditions: 6 isolates
Talaromyces marneffei = assay: MIC against moulds; type: cell-based; conditions: 6 isolates
Different Moulds = assay: Average MIC against different moulds; type: cell-based; set-up: MICavg moulds (159 strains): unit not given beside the values; conditions: for MIC: 157 isolates
Candida krusei = assay: MIC against yeasts; type: cell-based; conditions: 2 isolates
Sporothrix schenckii = assay: MIC against rare moulds resistant to AmB; type: cell-based; conditions: 6 isolates
[2] = system: Purpureocillium lilacinum; assay: MIC against rare moulds resistant to AmB; type: cell-based; conditions: 6 isolates
Lomentospora prolificans = assay: MIC against rare moulds resistant to AmB; type: cell-based; conditions: 6 isolates
Plasma Stability = type: in vitro ADME; conditions: for half-life at 1 µM: pH 7.4
Protocol: Plasma Stability: Procedure: […] Plasma was warmed to 37° C. prior to the experiment and centrifuged for 5 mins at 4000 rpm. […] Each time point was monitored in triplicate (0, 10, 30, 60 and 120 min). 4 uL/well aliquot of the working solution was mixed to the blank plasma and incubated at 37° C. AT each time point samples were quenched with ACN stop solution containing 200 ng/ml Tolbutamide & 200 ng/ml Labetalol at 1:3 ratio and mix well on shaker for 10 min then centrifuge at 4000 rpm for 15 min. A 100 ul aliquot of supernatant was mixed with 100 μL of ultra-pure and submitted for LC-MS/MS analysis.

[3] = Liver microsome stability, summary for all species; type: in vitro ADME; conditions: Mouse, rat, dog, monkey, human: All species
Protocol: Working Compound solution: 10 uM in 50 mM potassium phosphate buffer with 9% MeOH and 1% DMSO
Microsome solution: working concentration 0.625 mg/ml
Stopping solution: Cold ACN with 200 ng/ml Tolbutamide and 200 ng/ml Labetalol (4° C.)
Procedure: In the well plates (T5, T10, T20, T30, T60, NCF60 (no cofactor 60)) 10 uL of the compound/control working solution was added (except T0 and matric blank) followed by microsome solution (80 uL) and the mixture was incubated at 37 C for about 10 mins. A solution of potassium phosphate (10 ul of 50 mM) was added to NCF60 well, incubated at 37 C and time counting started. After prewarming 10 ul of NADPH regenerating solution was added to each plate to start the reaction. At different time point 300 uL/well of stopping solution to terminate the reaction. The sampling plates were shaken for 10 mins and the centrifuged for 20 mins at 4000 rpm. The supernatant was half diluted with ultra pure water and the analyzed using LCMS.

human erythrocytes = assay: MHC hemolysis assay; type: cell-based
Protocol: MHC (FIG. 21B): The protocol for the hemolysis assay was adapted from the report of Paquet and coworkers (Chem. Eur. J. 2008, 14, 2465-2481). Whole human blood (sodium heparin) was purchased from Bioreclamation LLC (Westbury, N.Y.) and stored at 4° C. and used within two days of receipt. To a 2.0 mL eppendorf tube, 1 mL of whole human blood was added and centrifuged at 10,000 g for 2 minutes. The supernatant was removed and the erythrocyte pellet was washed with 1 mL of sterile saline and centrifuged at 10,000 g for 2 minutes. The saline wash was repeated for a total of three washes. The erythrocyte pellet was suspended in 1 mL of RBC buffer (10 mM NaH2PO4, 150 mM NaCl, 1 mM MgCl2, pH 7.4) to form the erythrocyte stock suspension.
Compounds were prepared as >15 mM stock solutions in DMSO and serially diluted to the following concentrations with DMSO: 7689, 5126, 2563, 2050, 1538, 1025, 769, 513, 384, 256, 205, 154, 103, 77, 51, 26 μM. To a 0.2 mL PCR tube, 24 μL of RBC buffer and 1 μL of compound stock solution were added, which gave final concentrations of […]. Positive and negative controls were prepared by adding 1 μL of DMSO to MilliQ water or RBC buffer, respectively to 0.2 mL PCR tube. To each PCR tube, 0.63 μL of the erythrocyte stock suspension was added and mixed by inversion. The samples were incubated at 37° C. for 2 hours. The samples were mixed by inversion and centrifuged at 10,000 g for 2 minutes. 15 μL of the supernatant from each sample was added to a 384-well place. Absorbances were read at 540 nm using a Biotek H1 Synergy Hybrid Reader (Wanooski, Vt.). Experiments were performed in triplicate and the reported MHC represents an average of three experiments.

moulds (3 strains) = assay: MICavg moulds (3 strains); type: cell-based; set-up: unit not given beside the values
Solubility in D5W = conditions: for Solubility in D5W: 5% dextrose in water, room temperature; for Fold of Increase w.r.t. AmB (solubility): D5W
[4] = hemolysis, human erythrocytes, 37° C. 2 hours
[5] = Table 12, C16 amides of C2'epiAmB
[6] = Table 13, C16 amides of C2’epiAmB

| Structure (SMILES) | MIC [1] | MIC (A. calldoustus) [µM] | MIC (Claophialophora bantiana) [µM] | MICavg moulds (159 strains) (Different Moulds) | MIC (Different Moulds) [µM] | % Remaining at 120 min (Plasma Stability; Human Plasma) [%] | Half Life (Plasma Stability; Human Plasma) | MHC (human erythrocytes; [4]) [µM] | MHC (human erythrocytes; summary table, unit not given) | MICavg moulds (3 strains) (moulds (3 strains)) | Average MIC [1, 5] [µM] | Average MIC [1, 6] [µM] | Avg. MIC of AmB amide ([1]; not of the C2’epi compound) | MIC A. thermomutatus (A. thermomutatus) [µM] | MIC (Mucor circinelloides) [µM] | MIC (Mucor janssenii) [µM] | MIC (Mucor velutinosus) [µM] | MIC Coccidioides immitis (Coccidioides immitis) [µM] | MIC (Licht. Corymbifera) [µM] | MIC (Syncephalastrum sp.) [µM] | also measured |
| --- | --- | --- | --- | --- | --- | --- | --- | --- | --- | --- | --- | --- | --- | --- | --- | --- | --- | --- | --- | --- | --- |
| C[C@@H]1[C@H](O)[C@@H](C)/C=C/C=C/C=C/C=C/C=C/C=C/C=C/[C@H](OC2O[C@H](C)[C@@H](O)[C@H](N)[C@@H]2O)C[C@@H]2O[C@](O)(C[C@@H](O)C[C@@H](O)[C@H](O)CC[C@@H](O)C[C@@H](O)CC(=O)O[C@H]1C)C[C@H](O)[C@H]2C(=O)O (stereo partly shown) [AmB, Amphotericin B] | 0.642 µM and 0.44 µM | 1.5 (≈ 1.39 µg/mL) | 0.375 (≈ 0.347 µg/mL) | 0.9 | 0.9 (≈ 0.832 µg/mL) | 97.7 | >289; >289 min | 8.4 | 8.4 | 0.92 | – | – | – | – | – | – | – | – | – | – | MIC (A. thermomutatus; Aspergillus thermomutatus, read-out: MIC A. thermomutatus): 0.6 µM (≈ 0.554 µg/mL); MIC (Mucor circinelloides; Mucor circinelloides): 0.125 µM (≈ 0.116 µg/mL); MIC (Mucor janssenii; Mucor janssenii): 0.06 µM (≈ 0.0554 µg/mL); MIC (Mucor velutinosus; Mucor velutinosus): 0.08 µM (≈ 0.0739 µg/mL); MIC (Coccidioides immitis; Coccidioides immitis, read-out: MIC Coccidioides immitis): 0.125 µM (≈ 0.116 µg/mL); MIC (Licht. Corymbifera; Lichtheimia corymbifera): 0.23 µM (≈ 0.213 µg/mL); MIC (Syncephalastrum sp.; Syncephalastrum): 0.06 µM (≈ 0.0554 µg/mL); MIC (Fonsecaea sp.; Fonsecaea): < 0.03 µM; MIC (Talaromyces marneffei; Talaromyces marneffei): 0.09 µM (≈ 0.0832 µg/mL); MIC (Candida krusei; Pichia kudriavzevii): 1 µM (≈ 0.924 µg/mL); MIC (Sporothrix schenckii; Sporothrix schenckii): 4 µM (≈ 3.7 µg/mL); MIC ([2]; Purpureocillium lilacinum): > 16 µM; MIC (Lomentospora prolificans; Lomentospora prolificans): > 16 µM; % Remaining at 120 min (Plasma Stability; Rat Plasma): 88.3%; half-life at 1 µM (Plasma Stability; Human Plasma): > 4.82 h; half-life at 1 µM (Plasma Stability; Mouse Plasma): > 4.82 h; half-life at 1 µM (Plasma Stability; Rat Plasma): > 4.82 h; half-life at 1 µM ([3]; liver microsomes, read-out: Liver microsome T1/2): > 2.42 h; solubility (Solubility in D5W; 5% dextrose in water (D5W), saline or isotonic, thermodynamic from solid): 23 µM (≈ 21.3 µg/mL) |
| CC1C=CC=CC=CC=CC=CC=CC=CC(OC2OC(C)C(O)C(N)C2O)CC2OC(O)(CC(O)CC(O)C(O)CCC(O)CC(O)CC(=O)OC(C)C(C)C1O)CC(O)C2C(=O)NCCO (stereo not shown) [Compound BA] | 0.727 µM | 1.67 (≈ 1.62 µg/mL) | 2 (≈ 1.93 µg/mL) | 2.3 | 2.3 (≈ 2.22 µg/mL) | 118 | >289 min and >289; >289 min | >500 | >500 | 1.3 | 1.031 | 1030 | 0.18 | 1.6 (≈ 1.55 µg/mL) | 1 (≈ 0.967 µg/mL) | 0.92 (≈ 0.89 µg/mL) | 1.25 (≈ 1.21 µg/mL) | 0.29 (≈ 0.28 µg/mL) | 1 (≈ 0.967 µg/mL) | 1 (≈ 0.967 µg/mL) | Average MIC for AmB analogue ([1]; value of the corresponding AmB analogue, not of the C2’epi compound): 0.328 μM; MIC (Fonsecaea sp.): 0.06 µM (≈ 0.058 µg/mL); MIC (Talaromyces marneffei): 0.15 µM (≈ 0.145 µg/mL); MIC (Candida krusei): 4 µM (≈ 3.87 µg/mL); MIC (Sporothrix schenckii): 6 µM (≈ 5.8 µg/mL); MIC [2]: >16 µM; MIC (Lomentospora prolificans): >16 µM; % Remaining at 120 min (Plasma Stability; Mouse Plasma): 100%; Half Life (Plasma Stability; Mouse Plasma): >289 min and >289; >289 min; Liver microsome T1/2 [3]: >2.42 h; Solubility in D5W (Solubility in D5W): >2600 µM; Fold of Increase w.r.t. AmB (solubility) (Solubility in D5W): >113 |
| CC1C=CC=CC=CC=CC=CC=CC=CC(OC2OC(C)C(O)C(N)C2O)CC2OC(O)(CC(O)CC(O)C(O)CCC(O)CC(O)CC(=O)OC(C)C(C)C1O)CC(O)C2C(=O)NCCF (stereo not shown) [Compound BM] | – | 1.5 (≈ 1.45 µg/mL) | 1 (≈ 0.969 µg/mL) | 2.2 | 2.3 (≈ 2.23 µg/mL) | – | >289; >289 min | – | >100 | 1.7 | 0.844 | 840 | 0.39 | 1.7 (≈ 1.65 µg/mL) | 1 (≈ 0.969 µg/mL) | 0.92 (≈ 0.892 µg/mL) | 0.92 (≈ 0.892 µg/mL) | 0.23 (≈ 0.223 µg/mL) | 1 (≈ 0.969 µg/mL) | 1 (≈ 0.969 µg/mL) | MIC (Fonsecaea sp.): <0.03 µM; MIC (Talaromyces marneffei): 0.2 µM (≈ 0.194 µg/mL); MIC (Candida krusei): 2 µM (≈ 1.94 µg/mL); MIC (Sporothrix schenckii): 6.67 µM (≈ 6.46 µg/mL); MIC [2]: >16 µM; MIC (Lomentospora prolificans): >16 µM; Half Life (Plasma Stability; Mouse Plasma): >289; >289 min; Liver microsome T1/2 [3]: >2.42 h; Solubility in D5W (Solubility in D5W): 150 µM (≈ 145 µg/mL); Fold of Increase w.r.t. AmB (solubility) (Solubility in D5W): 6.5 |
